Results from publication PMC6480460, “Derivatives of the β-Crinane Amaryllidaceae Alkaloid Haemanthamine as Multi-Target Directed Ligands for Alzheimer’s Disease” (Molecules, 2019).
Read-outs that look alike come from different tables or passages of the source.

Columns and labels:
hAChE [1] = target: T1, hAChE (Homo sapiens, UniProt P22303); assay: biochemical; format: biochemical; conditions: for IC50: mean ± SEM of three independent measurements, each in triplicate
Method: (§1) The hAChE and hBuChE activities were determined using a modified method of Ellman with acetylthiocholine iodide (ATChI) and butyrylthiocholine iodide (BuTChI) as substrates, respectively.

hBuChE [2] = target: T2, hBuChE (Homo sapiens, UniProt P06276); assay: biochemical; format: biochemical
T2 sequence (P06276 29-602): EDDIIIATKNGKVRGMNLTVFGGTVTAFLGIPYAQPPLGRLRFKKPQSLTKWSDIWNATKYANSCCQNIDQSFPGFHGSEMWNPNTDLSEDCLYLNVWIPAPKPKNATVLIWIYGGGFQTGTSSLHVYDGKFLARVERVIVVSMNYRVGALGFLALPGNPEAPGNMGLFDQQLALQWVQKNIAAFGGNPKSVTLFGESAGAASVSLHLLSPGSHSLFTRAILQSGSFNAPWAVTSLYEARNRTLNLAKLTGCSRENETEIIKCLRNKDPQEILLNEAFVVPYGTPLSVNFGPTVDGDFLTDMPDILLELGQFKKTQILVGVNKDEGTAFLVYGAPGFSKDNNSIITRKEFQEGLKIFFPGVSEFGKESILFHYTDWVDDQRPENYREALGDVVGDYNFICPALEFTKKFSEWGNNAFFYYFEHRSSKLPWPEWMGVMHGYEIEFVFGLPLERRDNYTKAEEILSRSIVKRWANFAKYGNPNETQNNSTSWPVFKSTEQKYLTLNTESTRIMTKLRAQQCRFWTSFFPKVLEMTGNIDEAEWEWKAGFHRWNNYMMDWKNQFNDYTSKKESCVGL
Method: as §1

GSK-3β = GSK-3β (Homo sapiens, UniProt P49841); assay: GSK-3β assay (Kinase-Glo Kit); format: biochemical; conditions: for inhibition at 10 µM: tested at 10 µM compound concentration, read-out: GSK-3β (% inhib.)
GSK-3β, sequence (P49841 whole entry): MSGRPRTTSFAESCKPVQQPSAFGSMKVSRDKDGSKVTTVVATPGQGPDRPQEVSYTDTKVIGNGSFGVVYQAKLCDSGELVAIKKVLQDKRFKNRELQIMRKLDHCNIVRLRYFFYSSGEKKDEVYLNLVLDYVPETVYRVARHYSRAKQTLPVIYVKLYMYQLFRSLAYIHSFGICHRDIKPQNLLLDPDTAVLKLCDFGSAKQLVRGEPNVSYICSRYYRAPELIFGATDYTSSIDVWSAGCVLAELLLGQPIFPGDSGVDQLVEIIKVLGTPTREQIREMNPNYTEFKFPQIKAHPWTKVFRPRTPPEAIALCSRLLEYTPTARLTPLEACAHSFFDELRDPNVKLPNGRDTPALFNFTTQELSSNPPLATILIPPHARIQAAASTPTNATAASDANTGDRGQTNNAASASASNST
Method: The GSK-3β assay was performed by using Kinase-Glo Kit obtained from Promega (Promega Biotech Iberica, SL, Madrid, Spain) as described previously.

in vitro = conditions: for PAMPA-BBB Permeability (Pe) / Papp: PBS:EtOH (70:30) as solvent, mean ± SD of 2 independent experiments; for PAMPA-BBB prediction of penetration in the CNS: class from Pe; for Papp: pig, PAMPA, PAMPA-BBB Permeability (Pe)
Method: The PAMPA assay was performed as previously described.

[3] = tested on: Jurkat (acute T cell leukemia); assay: WST-1 cytotoxicity assay, Jurkat; format: cell-based; conditions: Homo sapiens, c = 10 μM, 48 h, percent of proliferation of untreated control cells
From the text: (§2) Selected human tumor and non-tumor cell lines {Jurkat (acute T cell leukemia), MOLT-4 (acute lymphoblastic leukemia), A549 (lung carcinoma), HT-29 (colorectal adenocarcinoma), PANC-1 (pancreas epithelioid carcinoma), A2780 (ovarian carcinoma), HeLa (cervix adenocarcinoma), MCF-7 (breast adenocarcinoma), SAOS-2 (osteosarcoma) and MRC-5 (normal lung fibroblasts)} were purchased from either ATCC (Manassas, VA, USA) or Sigma-Aldrich (St. Louis, MO, USA) and cultured according to the provider’s culture method guidelines. […] Cells in the maximum range of either 10 passages for primary cell line (MRC-5), or in the maximum range of 20 passages for cancer cell lines (Jurkat, MOLT-4, A549, HT-29, PANC-1, A2780, HeLa, MCF-7 and SAOS-2) and in an exponential growth phase were used for this study.
(§3) The WST-1 (Roche, Mannheim, Germany) reagent was used to determine the cytostatic effect of the test compounds. WST-1 is designed for the spectrophotometric quantification of cell proliferation, growth, viability and chemosensitivity in cell populations using a 96-well-plate format (Sigma, St. Louis, MO, USA). The principle of WST-1 is based on photometric detection of the reduction of tetrazolium salt to a colored formazan product. The cells were seeded at a previously established optimal density (30,000 Jurkat, 25,000 MOLT-4, 500 A549, 1500 HT-29, 2000 PANC-1, 5000 A2780, 500 HeLa, 1500 MCF-7, 2000 SAOS-2 and 2000 MRC-5 cells/well) in 100 µL of culture medium, and adherent cells were allowed to reattach overnight. Thereafter, the cells were treated with 100 µL of either corresponding alkaloids or doxorubicin stock solutions to obtain the desired concentrations and incubated in 5% CO2 at 37 °C. WST-1 reagent diluted 4-fold with PBS (50 µL) was added 48 h after treatment. Absorbance was measured after 3 h incubation with WST-1 at 440 nm. The measurements were performed in a Tecan Infinite M200 spectrometer (Tecan Group, Männedorf, Switzerland). All experiments were performed at least three times with triplicate measurements at each drug concentration per experiment. The viability was quantified as described previously according to the following formula: (%) viability = (Asample − Ablank)/(Acontrol − Ablank) × 100, where A is the absorbance of the employed WST-1 formazan measured at 440 nm. The viability of the treated cells was normalized to the viability of cells treated with 0.1% DMSO (Sigma-Aldrich) as a vehicle control.

[4] = tested on: MOLT-4 (acute lymphoblastic leukemia); assay: WST-1 cytotoxicity assay, MOLT-4; format: cell-based; conditions: Homo sapiens, c = 10 μM, 48 h, percent of proliferation of untreated control cells, read-out: Cell proliferation, MOLT-4
From the text: as §2, §3

A549 (lung carcinoma) = assay: WST-1 cytotoxicity assay, A549; format: cell-based; conditions: Homo sapiens, c = 10 μM, 48 h, percent of proliferation of untreated control cells, read-out: Cell proliferation, A549
From the text: as §2, §3

[5] = tested on: HT-29 (colorectal adenocarcinoma); assay: WST-1 cytotoxicity assay, HT-29; format: cell-based; conditions: Homo sapiens, c = 10 μM, 48 h, percent of proliferation of untreated control cells, read-out: Cell proliferation, HT-29
From the text: as §2, §3

[6] = tested on: PANC-1 (pancreas epithelioid carcinoma); assay: WST-1 cytotoxicity assay, PANC-1; format: cell-based; conditions: Homo sapiens, c = 10 μM, 48 h, percent of proliferation of untreated control cells, read-out: Cell proliferation, PANC-1
From the text: as §2, §3

[7] = tested on: A2780 (ovarian carcinoma); assay: WST-1 cytotoxicity assay, A2780; format: cell-based; conditions: Homo sapiens, c = 10 μM, 48 h, percent of proliferation of untreated control cells, read-out: Cell proliferation, A2780
From the text: as §2, §3

[8] = tested on: HeLa (cervix adenocarcinoma); assay: WST-1 cytotoxicity assay, HeLa; format: cell-based; conditions: Homo sapiens, c = 10 μM, 48 h, percent of proliferation of untreated control cells, read-out: Cell proliferation, HeLa
From the text: as §2, §3

[9] = tested on: MCF-7 (breast adenocarcinoma); assay: WST-1 cytotoxicity assay, MCF-7; format: cell-based; conditions: Homo sapiens, MCF7; c = 10 μM, 48 h, percent of proliferation of untreated control cells; read-out: Cell proliferation, MCF-7
From the text: as §2, §3

SAOS-2 (osteosarcoma) = assay: WST-1 cytotoxicity assay, SAOS-2; format: cell-based; conditions: Homo sapiens, c = 10 μM, 48 h, percent of proliferation of untreated control cells, read-out: Cell proliferation, SAOS-2
From the text: as §2, §3

[10] = tested on: MRC-5 (normal lung fibroblasts); assay: WST-1 cytotoxicity assay, MRC-5; format: cell-based; conditions: Homo sapiens, MRC5; c = 10 μM, 48 h, percent of proliferation of untreated control cells; read-out: Cell proliferation, MRC-5
From the text: as §2, §3

hAChE [11] = target: T1, hAChE; assay: AChE inhibition mechanism (Lineweaver-Burk kinetic analysis); format: biochemical; conditions: Lineweaver-Burk plot; Km and Vm decreased
Method: (§4) The antiproliferative effect of 1a–1m at 10 µM single-dose treatment regimen was assessed using WST-1 tetrazolium salt assay. […] Kinetic analysis of 1j and 1m was used for the determination of their inhibition pattern against both hAChE and hBuChE. […] The Km and Vm values were calculated from the Lineweaver-Burk plot.

hBuChE [12] = target: T2, hBuChE; assay: BuChE inhibition mechanism (Lineweaver-Burk kinetic analysis); format: biochemical; conditions: for mechanism of inhibition of hBuChE: Lineweaver-Burk plot, Km and Vm decreased
Method: as §4

[13] = tested on: human cell lines (Jurkat, MOLT-4, A549, HT-29, PANC-1, A2780, HeLa, MCF-7, SAOS-2 and MRC-5); assay: WST-1 antiproliferative screen, whole panel of tested human cell lines; format: cell-based; conditions: 10 µM single-dose, 48 h of exposure
Method: The antiproliferative effect of 1a–1m at 10 µM single-dose treatment regimen was assessed using WST-1 tetrazolium salt assay. […] Kinetic analysis of 1j and 1m was used for the determination of their inhibition pattern against both hAChE and hBuChE. […] The Km and Vm values were calculated from the Lineweaver-Burk plot. […]
The WST-1 (Roche, Mannheim, Germany) reagent was used to determine the cytostatic effect of the test compounds. WST-1 is designed for the spectrophotometric quantification of cell proliferation, growth, viability and chemosensitivity in cell populations using a 96-well-plate format (Sigma, St. Louis, MO, USA). […] Absorbance was measured after 3 h incubation with WST-1 at 440 nm. […] The viability was quantified as described previously according to the following formula: (%) viability = (Asample − Ablank)/(Acontrol − Ablank) × 100, where A is the absorbance of the employed WST-1 formazan measured at 440 nm. […]

[14] = mean ± SEM of three independent measurements, each in triplicate, read-out: hBuChE IC50

T1 sequence (P22303 32-614): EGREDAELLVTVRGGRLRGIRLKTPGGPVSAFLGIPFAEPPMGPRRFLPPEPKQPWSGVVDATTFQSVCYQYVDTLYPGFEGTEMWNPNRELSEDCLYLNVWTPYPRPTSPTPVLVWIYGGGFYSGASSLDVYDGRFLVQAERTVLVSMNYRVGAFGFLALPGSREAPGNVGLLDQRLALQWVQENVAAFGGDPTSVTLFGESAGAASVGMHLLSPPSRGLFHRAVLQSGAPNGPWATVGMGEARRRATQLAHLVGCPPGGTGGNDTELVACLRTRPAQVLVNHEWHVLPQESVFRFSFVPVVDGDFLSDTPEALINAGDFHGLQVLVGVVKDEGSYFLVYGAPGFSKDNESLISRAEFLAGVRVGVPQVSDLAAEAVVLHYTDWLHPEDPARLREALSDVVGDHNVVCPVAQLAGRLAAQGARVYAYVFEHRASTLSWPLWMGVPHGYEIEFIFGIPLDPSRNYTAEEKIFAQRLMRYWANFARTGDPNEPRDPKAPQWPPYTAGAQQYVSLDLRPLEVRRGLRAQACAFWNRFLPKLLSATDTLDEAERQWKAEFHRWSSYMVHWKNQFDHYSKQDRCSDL

Row | SMILES | IC50 (hAChE [1]) [µM] | IC50 (hBuChE [2]; [14]) [µM] | inhibition at 10 µM (GSK-3β) [%] | PAMPA-BBB Permeability (Pe) (in vitro) | PAMPA-BBB prediction of penetration in the CNS (in vitro) | Papp (in vitro) [×10⁻⁶ cm/s] | activity at 10 µM [3] [%] | viability at 10 µM [4] [%] | activity at 10 µM (A549 (lung carcinoma)) [%] | activity at 10 µM [5] [%] | activity at 10 µM [6] [%] | activity at 10 µM [7] [%] | activity at 10 µM [8] [%] | activity at 10 µM [9] [%] | activity at 10 µM (SAOS-2 (osteosarcoma)) [%] | activity at 10 µM [10] [%] | mechanism of inhibition of hAChE (hAChE [11]) | mechanism of inhibition of hBuChE (hBuChE [12]) | also measured
1 | COC1C=CC23c4cc5c(cc4CN(CC2OC(=O)c2ccc([N+](=O)[O-])cc2)C3C1)OCO5 (centres unmarked) [Compound 1m, 11-O-(4-Nitrobenzoyl)haemanthamine] | 14.7 ± 1.8 | > 500 | 27 ± 9 | 7.1 ± 0.3 10^−6 cm s^−1 | CNS+ (CNS(+): high BBB permeation predicted with Pe (10^−6 cm.s^−1) > 4.0) | > 4 | 69 ± 7 | 76 ± 12 | 74 ± 6 | 73 ± 2 | 71 ± 7 | 86 ± 4 | 71 ± 1 | 62 ± 10 | 69 ± 4 | 61 ± 8 | mixed mechanism of inhibition | mixed mechanism of inhibition | IC50 (GSK-3β; mean ± SEM of three independent measurements): 34.8 ± 0.01 µM; PAMPA-BBB prediction of penetration in the CNS (in vitro; listed as 18m): CNS +
2 | COC1C=CC23c4cc5c(cc4CN(CC2O)C3C1)OCO5 (centres unmarked) [Compound 1, Haemanthamine] | > 500 |  |  |  |  |  |  |  |  |  |  |  |  |  |  |  |  |  | hAChE inhibition activity, in words (hAChE [1]; cholinesterase assay): completely inactive; IC50 (hBuChE [2]): > 500 µM; hBuChE inhibition activity, in words (hBuChE [2]; cholinesterase assay): completely inactive; toxicity against the tested human cell lines, in words [13]: potent cytotoxic and apoptotic effects
3 | COC1C=CC23c4cc5c(cc4CN(CC2OC(=O)c2ccccc2)C3C1)OCO5 (centres unmarked) [Compound 1g, 11-O-Benzoylhaemanthamine] | 294 ± 25 | 5.8 ± 0.3 | 11 ± 2 |  | CNS+ (CNS(+): high BBB permeation predicted with Pe (10^−6 cm.s^−1) > 4.0) |  | 83 ± 11 | 110 ± 19 | 98 ± 2 | 110 ± 17 | 100 ± 10 | 120 ± 10 | 98 ± 2 | 108 ± 10 | 104 ± 9 | 101 ± 5 |  |  | SI for hAChE (hAChE [1]; selectivity index, ratio hBuChE IC50/hAChE IC50): 0.02; PAMPA-BBB prediction of penetration in the CNS (in vitro; listed as 18g): CNS +
4 | COC1C=CC23c4cc5c(cc4CN(CC2OC(=O)c2ccccc2C)C3C1)OCO5 (centres unmarked) [Compound 1j, 11-O-(2-Methylbenzoyl)haemanthamine] | 18.2 ± 1.3 | 6.6 ± 1.2 | 15 ± 6 | 5.8 ± 0.9 10^−6 cm s^−1 | CNS+ (CNS(+): high BBB permeation predicted with Pe (10^−6 cm.s^−1) > 4.0) | > 4 | 95 ± 11 | 91 ± 3 | 96 ± 8 | 98 ± 6 | 95 ± 6 | 129 ± 11 | 104 ± 4 | 112 ± 3 | 97 ± 17 | 112 ± 9 | mixed mechanism of inhibition | mixed mechanism of inhibition | SI for hAChE (hAChE [1]): 0.4; PAMPA-BBB prediction of penetration in the CNS (in vitro; listed as 18j): CNS +; Ki (hBuChE [12]; from Lineweaver-Burk kinetic analysis): 12.5 ± 0.45 µM
